# Columns and labels:
# MDCK cells [1] = assay: Detection of phosphate compound in cell (Test Example 1); type: in vitro ADME; conditions: 35° C., 20 hours, HPLC with radioactivity detector
# Procedure: 5 ml of an E′-MEM culture medium (containing 1% bovine serum albumin and 3% vitamin solution) containing a compound, 6-fluoro-3-hydroxy-2-[2-^14C]pyrazinecarboxamide, which ha-d been ^14C-labeled at position 2 of the pyrazine ring, was added to MDCK cells that had been monolayer-cultured on a 55 cm^2 culture plate. After completion of culture under conditions of 35° C. and 5% CO2 for 20 hours, 6-fluoro-3-hydroxy-2-[2-^14C]pyrazinecarboxamide and a converted compound were extracted from cell fractions, using a 66.6% acetonitrile solution. The extract was lyophilized and concentrated, and then analysis was carried out under the HPLC analysis conditions indicated below.
# [2] = system: influenza virus A/PR/8/34; assay: Anti-influenza effect (plaque inhibition in MDCK cells); type: cell-based; conditions: PR/8, MDCK, 72 h, read-out: Inhibition rate (plaque inhibition rate)
# MDCK cells [3] = assay: Detection of deprotected compound in cell (Test Example 2); type: in vitro ADME; conditions: 37° C., 1 hour, HPLC
# Procedure: The compound of Example 2 was added to MDCK cells suspended in a Hank's balanced salt solution, and the mixture was incubated at 37° C. for 1 hour. Thereafter, the obtained product was layered on silicon oil (KF-99), followed by centrifugation at 4° C. Cell fractions from the precipitate were suspended and frozen-thawed in a mobile phase indicated below, and the obtained solution was analyzed under the HPLC analysis conditions indicated below.
# [4] = system: bovine diarrhea virus (BVDV) NADL; assay: Anti-BVDV effect (plaque inhibition in MDBK cells); type: cell-based; conditions: Bovine viral diarrhea virus isolates and strains, 72 h, 100 μg/mL test compound, 70 PFU/well, 3 days, read-out: Inhibition rate (plaque inhibition rate)
# Procedure: MDBK cells that had fully grown in a 6-well culture plate were infected with bovine diarrhea virus (BVDV) NADL at 70 PFU/well. After 60 minutes, the infection solution was removed, and a test culture solution (E′-MEM) containing 5% horse serum and 1% agar (SeaPlaque Agar) that contained a 100 μg/mL test compound was added thereto. The mixture was fully solidified and then cultured for 3 days under conditions of 37° C., a humidity of 100% and 5% CO2. After completion of the culture, the test plate was fixed with a 3% formaldehyde solution, and the agar medium was removed with running water, followed by staining with a 1% crystal violet solution, so as to count the number of plaques. The plaque inhibition rate was expressed by the percentage obtained by comparing with a control to which no test compounds were added.
# [5] = Stability during the process of pharmaceutical preparation; type: physicochemical; conditions: compared with anhydrides
# MDBK cells = assay: Detection of triphosphate compound in cell by addition of compound A; type: in vitro ADME; conditions: 37° C., 24 hours
# Procedure: 10 ml of an E′-MEM culture medium (containing 0.5% fetal bovine serum) containing compound A was added to MDBK cells that had been monolayer-cultured on a 55 cm^2 culture plate. After completion of culture under conditions of 37° C. and 5% CO2 for 24 hours, the culture was removed using a cell scraper, and the culture medium was removed by centrifugation. Thereafter, 5% trichloroacetic acid was added to the obtained cell fractions, so that a converted compound was extracted. An equal amount of 20% trioctylamine-containing pentane was added to the extract, and the obtained water layer was then concentrated using a centrifugal concentrator. In the above concentrate, a component whose HPLC retention time matches that of a synthetic compound of triphosphates (a compound obtained in Reference Example 22) was detected.
# [6] = mouse, in vivo, 300 mg/kg
# Procedure: Compound A was administered into the caudal vein of a mouse at a dose of 300 mg/kg. 30 minutes after the administration, 1.6 g of the liver was excised, and it was then ground under ice cooling, while adding thereto 22.5 mL of 70% methanol that had been cooled to −20° C., so that compound A and a phosphate(s) form were extracted. 10 mL of the supernatant of the extract centrifuged at 4° C. for 10 minutes was purified under the condition indicated below, using a solid extraction cartridge (Varian BOND ELUT SAX HF 2 g/12 mL; eluted with 0.01 M to 1.0 M KCl) pretreated with 12 mL of methanol and 12 mL each of 1.0 M and 0.005 M KCl.
# The phosphate form contained in 5 mL of No. 3 0.05 M KCl eluate and a synthetic monophosphate compound (a compound obtained in Reference Example 30) were identical in terms of HPLC retention time and UV spectrum in HPLC analysis (HPLC-1) described in HPLC conditions. In addition, the phosphate form contained in 5 mL of No. 1 0.5 M KCl eluate and a synthetic diphosphate compound (a compound obtained in Reference Example 31) were identical in terms of HPLC retention time in HPLC analysis (HPLC-2) described in HPLC conditions. […]
compound,measurement,setting,value
NC(=O)[14c]1nc(F)cnc1O [6-fluoro-3-hydroxy-2-[2-^14C] pyrazinecarboxamide],monophosphate (Reference Example 15) and triphosphate (Reference Example 16) in cell fractions,MDCK cells [1],detected
"CC(C)(C)C(=O)SCCOP(=O)(OCCSC(=O)C(C)(C)C)OC[C@H]1O[C@@H](n2ccnc(C(N)=O)c2=O)[C@H](O)[C@@H]1O [Example 2, 2,2-dimethyl-thiopropionic acid S-(2-[[(2R,3S,4R,5R)-5-(3-carbamoyl-2-oxo-2H-pyrazine-1-yl)-3,4-dihydroxy-tetrahydro-furan-2-ylmethoxy]-[2-(2,2-dimethyl-propionylsulfanyl)-ethoxy]-phosphoryloxy]-ethyl) ester]",inhibition at 100 µg/mL,[2],100%
same,monophosphate as deprotected compound in cell fractions,MDCK cells [3],detected
same,inhibition at 100 µg/mL,[4],100%
"NC(=O)c1nccn([C@@H]2O[C@H](CO)[C@@H](O)[C@H]2O)c1=O.O [Example 29 (2), 4-[(2R,3R,4S,5R)-3,4-dihydroxy-5-(hydroxymethyl)tetrahydro-2-furanyl]-3-oxo-3,4-dihydro-2-pyrazinecarboxamide monohydrate]",stability during the process of pharmaceutical preparation,[5],excellent stability
"NC(=O)c1nccn([C@@H]2O[C@H](CO)[C@@H](O)[C@H]2O)c1=O [Example 29, 4-[(2R,3R,4S,5R)-3,4-dihydroxy-5-(hydroxymethyl)tetrahydro-2-furanyl]-3-oxo-3,4-dihydro-2-pyrazinecarboxamide]",inhibition at 100 µg/mL,[2],100%
same,component whose HPLC retention time matches the synthetic triphosphate (Reference Example 22) in cell extract,MDBK cells,detected
same,conversion into phosphate forms in the liver,[6],"converted in vivo into a monophosphate, then into a diphosphate form, and then into a triphosphate"
same,inhibition at 100 µg/mL,[4],100%

# Reference: patent US20040235761A1, “Novel virus proliferaton inhibition/virucidal method and novel pyradine nucleotide/pyradine nucleoside analogue” (priority 2001, published 2004)
